This passage reports Zone of inhibition results from patent US11179433B2, “Mouth freshener” (ARI HEALTHCARE PVT. LTD., priority 2014, dated 2021).

Format in all cases: cell-based
Settings in all cases: control, concentration not given, 100 μl per well

For one assay, the system named is Escherichia coli. In words: Anti-microbial activity, agar well diffusion (zone of inhibition). How it is done: (§1) The anti-microbial activity and the anti-fungal activity of the mouth freshener composition of the present disclosure was determined by testing it on Escherichia coli, Staphylococcus aureus and Candida albicans as the test microorganisms in comparison with a product presently available in the market (herein forward referred to as Product X), methanol and a standard drug i.e. Chlorhexidine. Escherichia coli, Staphylococcus aureus were grown in Luria-Bertani broth (LB broth) and Candida albicans was grown in Potato Dextrose broth (PD broth) until the growth reached approximately 10^6 cfu (colony forming units) per ml culture was attained. 100 μl of this culture was used for the antimicrobial assay. The 1-4% solution of powder extract was prepared by dissolving the extract in methanol as a solvent and all these solutions were store at 4° C. temperature till further use. Mueller-Hinton (HiMedia) agar plates were used to carry out the testing of the anti-microbial activity and Potato dextrose (Himedia) agar plates were used to carry out the testing of the anti-fungal activity of the mouth freshener composition. The dried surface of a Mueller-Hinton agar plate was inoculated by spreading 100 μl culture suspension on the agar surface. […]
(In agar diffusion tests the substance spreads into inoculated agar from a disc or well.)

A further assay relates to Staphylococcus aureus. The description is as above. How it is done: as §1
In another assay the test system is Candida albicans. The experiment in a line: Anti-fungal activity, agar well diffusion (zone of inhibition). Here is the method:
as §1

As to `[H]/N=C(\N/C(=N/[H])NCCCCCCNC(=N)NC(=N)Nc1ccc(Cl)cc1)Nc1ccc(Cl)cc1` [Chlorhexidine], the Zone of inhibition in the assay with Escherichia coli came to 15 mm; with Staphylococcus aureus, 18 mm; in the assay with Candida albicans, 19 mm.
